Values joined by “and” are separate entries in the source; they are usually repeats but may differ in a detail not shown here. Equal values may be shown once.
What was measured:
Assay type in all cases: biochemical
[1] = biological target: T1, matriptase (Homo sapiens, UniProt Q9Y5Y6); assay: HyCoSuL P4-P2 substrate specificity screening, matriptase; conditions: for P2 Position Substrate Activity for matriptase (percent substrate cleavage/proteolysis): residue fixed at P2 position; for P3 Position Various Amino Acids Substrate Activity, matriptase (percent substrate cleavage/proteolysis): residue fixed at P3 position of substrate library; for P4 Position Various Amino Acids Substrate Activity, matriptase (percent substrate proteolysis/cleavage): residue fixed at P4 position of substrate library; for P3 Position Substrate Activity for matriptase (percent substrate cleavage/proteolysis): residue fixed at P3 position
T1 sequence (Q9Y5Y6 1-855): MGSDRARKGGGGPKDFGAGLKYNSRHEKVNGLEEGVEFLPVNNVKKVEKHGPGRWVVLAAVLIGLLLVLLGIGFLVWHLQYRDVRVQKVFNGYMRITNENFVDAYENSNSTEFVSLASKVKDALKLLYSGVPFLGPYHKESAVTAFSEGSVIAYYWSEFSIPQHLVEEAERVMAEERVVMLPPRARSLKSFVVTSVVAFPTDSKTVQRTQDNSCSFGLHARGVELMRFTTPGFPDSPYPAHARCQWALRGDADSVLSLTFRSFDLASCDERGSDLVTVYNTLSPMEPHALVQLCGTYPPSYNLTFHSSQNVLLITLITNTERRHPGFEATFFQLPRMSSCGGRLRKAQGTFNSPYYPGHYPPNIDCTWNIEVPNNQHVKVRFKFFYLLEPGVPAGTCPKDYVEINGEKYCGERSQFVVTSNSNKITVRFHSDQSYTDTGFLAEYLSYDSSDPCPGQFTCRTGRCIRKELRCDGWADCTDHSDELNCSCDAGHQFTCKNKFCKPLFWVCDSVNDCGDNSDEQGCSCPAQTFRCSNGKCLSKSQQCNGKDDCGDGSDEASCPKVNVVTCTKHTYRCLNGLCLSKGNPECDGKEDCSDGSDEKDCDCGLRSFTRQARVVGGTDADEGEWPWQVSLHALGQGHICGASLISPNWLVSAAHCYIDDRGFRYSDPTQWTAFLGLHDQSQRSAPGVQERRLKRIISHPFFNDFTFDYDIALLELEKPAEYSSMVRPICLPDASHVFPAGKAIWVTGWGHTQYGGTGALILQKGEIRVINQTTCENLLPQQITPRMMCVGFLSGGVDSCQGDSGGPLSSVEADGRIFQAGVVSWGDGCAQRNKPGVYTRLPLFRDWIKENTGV

[2] = biological target: TMPRSS2 (Homo sapiens, UniProt O15393); assay: PS-SCL / HyCoSuL substrate specificity screening, TMPRSS2; conditions: for P2 Position Substrate Activity for TMPRSS2 (percent substrate cleavage/proteolysis): residue fixed at P2 position of substrate library; for P3 Position Various Amino Acids Substrate Activity, TMPRSS2 (percent substrate cleavage/proteolysis) / P3 Position Substrate Activity for TMPRSS2 (percent substrate cleavage/proteolysis): residue fixed at P3 position of substrate library
TMPRSS2, sequence (O15393 whole entry): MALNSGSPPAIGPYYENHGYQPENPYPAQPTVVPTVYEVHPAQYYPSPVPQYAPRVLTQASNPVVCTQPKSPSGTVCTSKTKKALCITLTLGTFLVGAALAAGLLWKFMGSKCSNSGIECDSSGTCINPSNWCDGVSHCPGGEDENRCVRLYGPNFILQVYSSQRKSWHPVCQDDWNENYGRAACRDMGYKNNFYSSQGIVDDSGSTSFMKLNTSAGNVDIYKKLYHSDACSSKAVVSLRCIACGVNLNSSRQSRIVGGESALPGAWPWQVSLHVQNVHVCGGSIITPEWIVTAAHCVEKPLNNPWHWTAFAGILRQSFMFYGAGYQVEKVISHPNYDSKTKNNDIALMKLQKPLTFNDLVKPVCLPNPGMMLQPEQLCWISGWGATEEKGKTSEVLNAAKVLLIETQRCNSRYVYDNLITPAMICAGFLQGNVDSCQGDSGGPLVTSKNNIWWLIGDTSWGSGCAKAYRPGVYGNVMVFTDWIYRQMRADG

[3] = biological target: T2, HGFA (Homo sapiens, UniProt Q04756); assay: HyCoSuL P4-P2 substrate specificity screening, HGFA; conditions: for P2 Position Substrate Activity for HGFA (percent substrate cleavage/proteolysis): residue fixed at P2 position; for P3 Position Various Amino Acids Substrate Activity, HGFA (percent substrate cleavage/proteolysis): residue fixed at P3 position of substrate library; for P4 Position Various Amino Acids Substrate Activity, HGFA (percent substrate proteolysis/cleavage): residue fixed at P4 position of substrate library; for P3 Position Substrate Activity for HGFA (percent substrate cleavage/proteolysis): residue fixed at P3 position
T2 sequence (Q04756 373-655): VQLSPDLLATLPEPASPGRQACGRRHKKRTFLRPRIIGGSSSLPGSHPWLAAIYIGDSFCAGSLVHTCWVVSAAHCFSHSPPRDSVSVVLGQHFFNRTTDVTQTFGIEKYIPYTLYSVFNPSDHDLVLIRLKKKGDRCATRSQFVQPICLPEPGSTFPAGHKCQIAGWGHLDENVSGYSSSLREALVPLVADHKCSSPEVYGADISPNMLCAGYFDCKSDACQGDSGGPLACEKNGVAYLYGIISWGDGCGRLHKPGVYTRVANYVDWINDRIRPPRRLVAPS

[4] = biological target: T3, hepsin (Homo sapiens, UniProt P05981); assay: HyCoSuL P4-P2 substrate specificity screening, hepsin; conditions: for P2 Position Substrate Activity for hepsin (percent substrate cleavage/proteolysis): residue fixed at P2 position; for P3 Position Various Amino Acids Substrate Activity, hepsin (percent substrate cleavage/proteolysis): residue fixed at P3 position of substrate library; for P4 Position Various Amino Acids Substrate Activity, hepsin (percent substrate proteolysis/cleavage): residue fixed at P4 position of substrate library; for P3 Position Substrate Activity for hepsin (percent substrate cleavage/proteolysis): residue fixed at P3 position
T3 construct: purchased R&D Systems 4776-SE-010
T3 sequence (P05981 163-417 limits assumed): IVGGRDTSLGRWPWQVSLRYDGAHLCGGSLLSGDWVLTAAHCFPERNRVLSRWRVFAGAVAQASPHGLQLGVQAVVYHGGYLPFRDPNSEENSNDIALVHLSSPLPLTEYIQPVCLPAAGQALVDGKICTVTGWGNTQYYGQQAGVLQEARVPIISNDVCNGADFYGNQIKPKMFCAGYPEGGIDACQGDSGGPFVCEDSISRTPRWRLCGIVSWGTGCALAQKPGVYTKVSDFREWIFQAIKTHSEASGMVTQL
T3 sequence (P05981 1-162 partner limits assumed): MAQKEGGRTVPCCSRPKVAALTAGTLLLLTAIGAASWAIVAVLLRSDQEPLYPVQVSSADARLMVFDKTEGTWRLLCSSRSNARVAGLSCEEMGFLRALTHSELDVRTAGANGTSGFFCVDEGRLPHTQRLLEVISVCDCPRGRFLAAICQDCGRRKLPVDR

[5] = P1-Arg HyCoSuL, 100 μM, best recognized amino acid set to 100%
[6] = best recognized amino acid set to 100%
[7] = residue fixed at P4 position of substrate library
[8] = residue fixed at P4 position, P1-Arg HyCoSuL, 100 μM, best recognized amino acid set to 100%

Row | Substance | P2 Position Substrate Activity for matriptase (percent substrate cleavage/proteolysis) [1, 5] [%] | P3 Position Various Amino Acids Substrate Activity, matriptase (percent substrate cleavage/proteolysis) [1] [%] | P4 Position Various Amino Acids Substrate Activity, matriptase (percent substrate proteolysis/cleavage) [1] [%] | P2 Position Substrate Activity for TMPRSS2 (percent substrate cleavage/proteolysis) [2, 6] [%] | P3 Position Various Amino Acids Substrate Activity, TMPRSS2 (percent substrate cleavage/proteolysis) [2] [%] | P4 Position Various Amino Acids Substrate Activity, TMPRSS2 (percent substrate proteolysis/cleavage) [2, 7] [%] | P2 Position Substrate Activity for HGFA (percent substrate cleavage/proteolysis) [3, 5] [%] | P3 Position Various Amino Acids Substrate Activity, HGFA (percent substrate cleavage/proteolysis) [3] [%] | P4 Position Various Amino Acids Substrate Activity, HGFA (percent substrate proteolysis/cleavage) [3] [%] | P2 Position Substrate Activity for hepsin (percent substrate cleavage/proteolysis) [4, 5] [%] | P3 Position Various Amino Acids Substrate Activity, hepsin (percent substrate cleavage/proteolysis) [4] [%] | P4 Position Various Amino Acids Substrate Activity, hepsin (percent substrate proteolysis/cleavage) [4] [%] | P3 Position Substrate Activity for matriptase (percent substrate cleavage/proteolysis) [1, 5] | P4 Position Substrate Activity for matriptase (percent substrate cleavage/proteolysis) [1, 8] [%] | P3 Position Substrate Activity for TMPRSS2 (percent substrate cleavage/proteolysis) [2, 6] [%] | P4 Position Substrate Activity for TMPRSS2 (percent substrate cleavage/proteolysis) ([2]; residue fixed at P4 position of substrate library, best recognized amino acid set to 100%) [%] | P3 Position Substrate Activity for HGFA (percent substrate cleavage/proteolysis) [3, 5] [%] | P4 Position Substrate Activity for HGFA (percent substrate cleavage/proteolysis) [3, 8] [%] | P3 Position Substrate Activity for hepsin (percent substrate cleavage/proteolysis) [4, 5] [%] | P4 Position Substrate Activity for hepsin (percent substrate cleavage/proteolysis) [4, 8] [%]
1 | L-Ala | 28 | 34 | 31 | 25.14 | 31.84 | 26.30 | 2.37 | 8.97 | 6.68 | 17.85 | 28.07 | 41.30 | – | – | – | – | – | – | – | –
2 | L-Arg | 0 | 70 | 100 | 5.65 | – | – | 2.08 | – | – | 57.23 | – | – | 62.39% and 70.35% | 100.00 | 27.44 | 27.99 | 43.98 | 23.62 | 70.75 | 80.32
3 | L-Asn | 12 | 14 | 10 | 9.49 | 19.47 | 21.89 | 4.79 | 6.12 | 8.20 | 63.72 | 24.47 | 25.25 | – | – | – | – | – | – | – | –
4 | L-Asp | 1 | 2 | 1 | 9.72 | 25.70 | 7.77 | 1.21 | 2.81 | 1.90 | 0.33 | 3.89 | 0.22 | – | – | – | – | – | – | – | –
5 | L-Cit | 1 | 21 | 18 | 0.00 | 32.80 | 33.20 | 6.32 | 13.41 | 6.44 | 32.27 | 29.53 | 36.68 | – | – | – | – | – | – | – | –
6 | L-Dab | 0 | 66 | 32 | 0.00 | – | 12.90 | 0.50 | – | 16.76 | 13.49 | – | 47.53 | 66.02% | – | 36.73 | – | 29.40 | – | 48.55 | –
7 | L-Dap | 9 | 52 | 16 | 4.32 | – | 16.80 | 1.49 | – | 13.31 | 10.01 | – | 35.65 | 51.80% | – | 43.61 | – | 24.27 | – | 48.71 | –

From patent US20250171495A1, “MUTLI-TARGETED SERINE PROTEASE INHIBITORS FOR TREATMENT OF CANCER AND VIRAL INFECTION” (Washington University, priority 2023, published 2025)
